Consider one compound from article PMC4669759 (Cell Death & Disease, 2015).

The target of assay [1] is T1, BCL-XL–BAD complexes (Homo sapiens, UniProt Q07817).
T1 construct: expressed in transfected cells; host or cells: T-REx-293, bicistronic expression module integrated at a single genomic site
The experiment in a line: Live cell redistribution assay, eGFP-BCL-XL and mCherry-BAD, T-REx-293 cells. The assay is classed as cell-based. The settings on record: 10 μM, 300 min. The source says:
To further rule out potential artifacts associated with lysate detergents that can influence interactions between BCL-2 family proteins,[47] we employed a recently described real-time imaging method to assess the effects on BCL-2 family complexes in live cells.[48] Briefly, interacting pairs of BCL-2 family proteins are expressed as fluorescent fusion proteins at stoichiometric levels from a bicistronic expression module integrated into a single site of the genome in T-REx-293 cells. […]
Figure 3 A-1210477 inhibits MCL-1-BIM complexes in live cells. […] The decrease in amount of mCherry-BH3 protein localized to the mitochondria was quantified as a function of time as described in the Materials and Methods, normalized to DMSO control, and fitted to a single exponential decay. Each data point represents the mean change in intensity calculated from 10 fields of view, with error bars indicating the S.E.M. (b) T-REx-293 cells stably expressing eGFP-MCL-1(3B) and mCherry-BIMS(2A)ΔC were treated with 50 μM ABT-737 or increasing concentrations (1–25 μM) A-1210477 for 100 min. The decrease in amount of mCherry-BIMS(2A)ΔC localized to the mitochondria was quantified as in panel (a). (c) Representative fluorescence microscopic images of T-REx-293 cells stably expressing eGFP-BCL-2 family and interacting mCherry-BH3-only proteins before and after 300 min of treatment with 10 μM A-1210477 or (d) ABT-737. […]

Assay [2] concerns H929 cells. The experiment in a line: Hallmarks of apoptosis in H929 cells (caspase-3/-7, mitochondrial membrane depolarization, phosphatidylserine). The class given is cell-based, human. The settings on record: H929, 4 h. On the procedure:
Figure 4 Indole-2-carboxylic acids induce the hallmarks of apoptosis in MCL-1-dependent cancer cell line H929. (a) Digitonin-permeabilized H929 cells were treated with 10 μM BH3 peptides for 4 h, and intact H929 cells were incubated with increasing concentrations (0.1–10 μM) of A-1208746 for 4 h before assessing the levels of cytochrome c released into the cytosol. (b) H929 and RS4;11 cells were incubated with increasing concentrations of MCL-1 inhibitors or the BCL-2-selective inhibitor ABT-199 (venetoclax) for 48 h before determining cell viability. Cell killing IC50s are plotted with each value representing the mean of three separate experiments. […]
H929 cells were cultured in RPMI 1640 (Invitrogen Corp., Grand Island, NY, USA) supplemented with 10% fetal bovine serum (Invitrogen), 1% sodium pyruvate, 25 mM HEPES, 4.5 g/l glucose, and 1% penicillin/streptomycin (Sigma) and maintained in a humidified chamber at 37 °C containing 5% CO2. […] Following treatment, the hallmarks of apoptosis (activation of caspase-3/-7, mitochondrial membrane depolarization, and phosphatidylserine externalization) were measured using the IntelliCyt (Albuquerque, NM, USA) MultiCyt 4-Plex Apoptosis Screening Kit according to the manufacturer's instructions and read by flow cytometry using a HTFC screening system (IntelliCyt). […] Data were expressed as the percentage of singlet cells. […]

T1 sequence (Q07817 whole entry, one chain of several): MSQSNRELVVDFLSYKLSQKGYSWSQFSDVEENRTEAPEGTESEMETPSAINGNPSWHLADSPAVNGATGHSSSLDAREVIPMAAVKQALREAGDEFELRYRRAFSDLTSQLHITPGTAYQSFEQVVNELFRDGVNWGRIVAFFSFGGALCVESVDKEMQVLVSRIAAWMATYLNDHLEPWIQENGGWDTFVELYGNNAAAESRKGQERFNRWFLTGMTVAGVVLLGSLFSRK

Regarding `Cc1nn(C)c(COc2ccc(N3CCN(S(=O)(=O)N(C)C)CC3)cc2)c1-c1cccc2c(CCCOc3cccc4ccccc34)c(C(=O)O)n(CCN3CCOCC3)c12` [A-1210477], the “redistribution of mCherry-BAD associated with BCL-XL” value in assay [1] was “no effect”. For the same compound, the “induction of hallmarks of apoptosis (mitochondrial membrane depolarization, caspase-3/-7 activation, phosphatidylserine externalization)” value in assay [2] is on record as “induced the hallmarks of apoptosis”.
